{"source": "patent US20240082296A1", "about": "“TREATMENT OF MUSCLE ATROPHY USING DEXTRAN SULFATE” (TX MEDIC AB, priority 2020, published 2024)", "key": {"ALS patients": {"system": "ALS patients", "assay": "serum metabolites by HPLC pre- and post-treatment in ALS patients (Example 3)", "format": "in vivo, human", "excerpt": "The objective of this Example was to evaluate the effect of repeated dextran sulfate administration on the concentrations of serum metabolites in serum samples from a cohort of Swedish ALS patients who had participated in the trial entitled ‘A single-centre, open single-arm study where the safety, tolerability and efficacy of subcutaneously administered ILB® will be evaluated in patients with Amyotrophic Lateral Sclerosis’. Using a longitudinal design, this study aimed to determine the changes of selected serum metabolites in each ALS patient before and after weekly dextran sulfate treatment. Changes in the measured metabolites indicate the biochemical response of the patient to dextran sulfate that is underpinning potential disease modification and the mechanisms of action of the drug in this patient population.\nAfter an initial screening visit, patients had five weekly dosing of a single dextran sulfate (ILB®, Tikomed AB, Viken, Sweden, WO 2016/076780) injection of 1.0 mg/kg body weight in saline into the subcutaneous fat of the lower abdomen.\nPeripheral venous blood samples were been collected from the patients after at least 15 minutes of complete rest, using the standard tourniquet procedure, from the antecubital vein into a single VACUETTE® polypropylene tube containing serum separator and clot activator (Greiner-Bio One GmbH, Kremsmunster, Austria). After 30 minutes at room temperature, blood withdrawals were centrifuged at 1,890×g for 10 min and the resulting serum samples were stored at −20° C. until analysis.\n(§1) After defrost, an aliquot of 500 μl of each serum sample was supplemented with 1 ml of HPLC-grade acetonitrile, vortexed for 60 seconds, centrifuged at the maximum speed in a top-bench centrifuge to precipitate proteins. Supernatants were washed with large volumes of HPLC-grade chloroform to remove organic solvent, centrifuged and the upper aqueous phases were transferred in different tubes, clearly labeled to identify the sample and stored at −80° C. until analyzed to determine different water-soluble compounds.\nA second aliquot of about 300 μl of each serum sample was light-protected and then processed to extract fat-soluble antioxidants using a method described in detail elsewhere (Lazzarino et al., Single-step preparation of selected biological fluids for the high performance liquid chromatographic analysis of fat-soluble vitamins and antioxidants. J Chromatogr A. 2017; 1527: 43-52.). Briefly, samples were supplemented with 1 ml of HPLC-grade acetonitrile, vigorously vortexed for 60 s and incubated at 37° C. for 1 h in a water bath under agitation, to allow the full extraction of lipid soluble compounds. Samples were then centrifuged at 20,690×g for 15 min at 4 C to precipitate proteins and the clear supernatants were saved at −80° C. until the HPLC analysis of fat-soluble vitamins and antioxidants.\nIn deproteinized serum samples, the following water-soluble compounds were separated and quantified by HPLC, according to methods described elsewhere (Tavazzi et al., Simultaneous high performance liquid chromatographic separation of purines, pyrimidines, N-acetylated amino acids, and dicarboxylic acids for the chemical diagnosis of inborn errors of metabolism. Clin Biochem. 2005; 38: 997-1008; Romitelli et al., Comparison of nitrite/nitrate concentration in human plasma and serum samples measured by the enzymatic batch Griess assay, ion-pairing HPLC and ion-trap GC-MS: The importance of a correct removal of proteins in the Griess assay. J Chromatogr B Analyt Technol Biomed Life Sci. 2007; 851: 257-267; Amorini et al., Metabolic profile of amniotic fluid as a biochemical tool to screen for inborn errors of metabolism and fetal anomalies. Mol Cell Biochem. 2012; 359: 205-216): hypoxhantine, xanthine, uric acid, malondialdehyde (MDA), nitrite, nitrate, N-acetylaspartate (NAA), citrulline (CITR), alanine (ALA), and ornithine (ORN). […]"}, "[1]": {"system": "human patients suffering from ALS", "assay": "serum lactate in ALS patients before and after dextran sulfate (Example 1)", "format": "in vivo", "conditions": "2 mg/kg s.c. once a week; for serum lactate levels: week 0: 1.78±0.59", "excerpt": "Using a longitudinal design, this study was aimed to determine the changes of selected serum metabolites in ALS patients before dextran sulfate administration and after different times following the beginning of the treatment. Changes in the measured metabolites indicated the biochemical response of the patient to dextran sulfate that is underpinning potential disease modification and the mechanisms of action of the drug in this ALS patient population.\n(§2) Dextran sulfate (Tikomed AB, Viken, Sweden, WO 2016/076780) was administered at 2 mg/kg by […] subcutaneous injection once a week for ten weeks to 8 human patients suffering from ALS.\nPeripheral venous blood samples were collected from patients before (week 0) and after dextran sulfate administration (week 5 and week 10) after at least 15 minutes of complete rest, using the standard tourniquet procedure, from the antecubital vein into a single VACUETTE® polypropylene tube containing serum separator and clot activator (Greiner-Bio One GmbH, Kremsmunster, Austria). After 30 mins at room temperature (20-25° C.), blood withdrawals were centrifuged at 1,890×g for 10 min to get serum aliquots.\nas §1, with “A serum aliquot” for “After defrost, an aliquot”, “μl” for “μl of each serum sample”, “60 secs,” for “60 seconds,”, “transferred to” for “transferred in”"}, "[2]": {"system": "human patients suffering from ALS", "assay": "ALSAQ-40 ADL and PM sub-scores in ALS patients (Example 1)", "format": "in vivo", "description": "as §2\nALSAQ-40 was assessed pre-treatment and weekly thereafter for the 10 treatment weeks and for the visits at the follow-up period.\nThe ALSAQ-40 sub-scores entitled ‘Activities of Daily Living/Independence’ (ADL) and ‘Physical Mobility’ (PM) reflect the patients' view of their level of physical activity and independence. A falling score reflects improved physical activity."}, "patients with ALS": {"system": "patients with ALS", "assay": "clinical observation of muscle function (ALSFRS-R) in ALS patients (Example 2)", "format": "in vivo, human", "conditions": "during the five-week treatment period; 1 mg/kg s.c. weekly", "description": "A clinical trial in the form of a Phase IIa, single-center, open label, single-arm study where the safety, tolerability and possible efficacy of subcutaneously administered dextran sulfate was evaluated in patients with ALS of intermediate progression rate. The clinical trial was conducted at the Sahlgrenska University Hospital, Gothenburg, Sweden and was overseen and approved by the Ethics Committee of the University of Gothenburg and by the Swedish Medical Products Agency.\nDextran sulfate (Tikomed AB, Viken, Sweden, WO 2016/076780) was administered at 1 mg/kg by […] subcutaneous injection once a week for five weeks to 13 human patients suffering from ALS.\nALSFRS-R was assessed pre-treatment and weekly thereafter for the 5 treatment weeks and for the visits at the follow-up period.\nThe biochemical evidence of reduced muscle degeneration supports the clinical observations of improved muscle function. For example, in the ALSFRS-R, functions mediated by cervical, trunk, lumbosacral, and respiratory muscles are each assessed by 3 items and scores in these categories show close agreement with objective measures of muscle strength."}, "[3]": {"conditions": "post- vs pre-treatment, five weekly 1.0 mg/kg s.c."}}}
{"substance": "dextran sulfate", "values": [{"measurement": "serum CITR", "setting": "ALS patients; [3]", "value": "ameliorated"}, {"measurement": "serum MDA", "setting": "ALS patients; [3]", "value": "decreased"}, {"measurement": "serum NAA", "setting": "ALS patients; [3]", "value": "Significantly lower"}, {"measurement": "serum ORN/CITR ratio", "setting": "ALS patients; [3]", "value": "ameliorated"}, {"measurement": "serum nitrate", "setting": "ALS patients; [3]", "value": "decreased"}, {"measurement": "serum nitrite+nitrate", "setting": "ALS patients; [3]", "value": "decreased"}, {"measurement": "serum sum of oxypurines (hypoxanthine+xanthine+uric acid)", "setting": "ALS patients; [3]", "value": "decreased"}, {"measurement": "serum uric acid", "setting": "ALS patients; [3]", "value": "decreased"}, {"measurement": "serum α-tocopherol", "setting": "ALS patients; [3]", "value": "ameliorated"}, {"measurement": "serum γ-tocopherol", "setting": "ALS patients; [3]", "value": "ameliorated"}, {"measurement": "circulating values of ALA", "setting": "ALS patients; post-treatment, equal to controls, significantly lower than pre-treatment", "value": "normalized"}, {"measurement": "increase of serum lactate levels", "setting": "[1]; after 5 weeks vs week 0", "value": 29.8, "unit": "%"}, {"measurement": "serum lactate levels", "setting": "[1]; after 5 weeks, p<0.01", "value": "2.31 ± 1.02", "unit": "mM"}, {"measurement": "increase of serum lactate levels", "setting": "[1]; after 10 weeks vs week 0", "value": 70, "unit": "%"}, {"measurement": "serum lactate levels", "setting": "[1]; after 10 weeks", "value": "3.02 ± 1.59", "unit": "mM"}, {"measurement": "decline of ALSAQ-40 ADL sub-score", "setting": "[2]; after 10 weeks of treatment", "value": 18.6, "unit": "%"}, {"measurement": "decline of ALSAQ-40 PM sub-score", "setting": "[2]; after 10 weeks of treatment", "value": 16, "unit": "%"}, {"measurement": "ALSAQ-40 PM sub-score", "setting": "[2]; after 10 weeks, pre-treatment 27.2±22.2", "value": "22.7±20.2"}, {"measurement": "ALSAQ-40 ADL sub-score", "setting": "[2]; after 10 weeks, pre-treatment 58.9±21.4, p<0.05, falling score = improved", "value": "44.4±24.7"}, {"measurement": "severe bulbar paresis in two patients", "setting": "patients with ALS", "value": "almost complete resolution"}]}
